Entries after “also recorded” stand apart in the source; their conditions may differ.
Assays:
[1] = ONOO^−-mediated APF oxidation in vitro (fluorescence spectroscopy); settings: ONOO^− 20 μM, fluorescence 515 nm (ex. 490 nm)
Method: To obtain further insight into the ONOO^− scavenging abilities of CeO2 NPs, the yield of oxidized APF was followed by fluorescent spectroscopy using the oxidizable probe, 3′-(p-aminophenyl) fluorescein (APF) as an indicator (FIG. 2B). APF is an aromatic amino-fluorescein derivative that has little intrinsic fluorescence but undergoes oxidation by only hydroxyl radical, hypochlorate ion, and certain peroxidase intermediates such as ONOO^−, but is inert to NO., O2^⋅− and H2O2 (40).
ONOO^− (20 μM) was added to APF along with varying amounts CeO2 NPs. Glutathione (Fisher, Fair Lawn, N.J.) and uric acid (Avocado, Research Chemicals, Ltd.) known scavengers of ONOO^−, were used as positive controls. Fluorescence at 515 nm (ex. 490 nm) was measured using a Varian Cary Eclipse fluorescence spectrophotometer (Palo Alto, Calif.).

[2] = Decay of ONOO^− followed at 302 nm by UV-visible spectroscopy
Method: The decay of ONOO^− was followed in the absence and presence of CeO2 NPs (FIG. 2A and Supplementary FIG. 3: Effect of CeO2 NPs on the rate of decay of ONOO— in vitro varying pH. ONOO— (25 μM) was added at various pH's alone and in the presence of CeO2 NPs (100 μM), SiO2 NPs (100 μM), glutathione (GSH) (0.5 mM). (A) Peroxynitrite absorbance followed at 302 nm in 100 mM sodium phosphate buffer at pH 8.6. (N=4). GSH, known general scavenger and SiO2 NPs were added as positive and negative controls, respectively. Rate of ONOO—(black traces) decomposition was increased with CeO2 NPs (blue traces) in a similar manner of GSH (red traces). Rate of decomposition was not affected by presence of SiO2 NPs (green traces). B) 100 mM sodium phosphate buffer at pH 9.5. (N=3). Rate of ONOO—(black traces) decomposition was increased with CeO2 NPs (blue traces) in a similar manner of GSH (red traces). Absorbance was normalized by subtracting the final absorbance from initial absorbance and dividing by the amplitude. As stock solutions of ONOO— contain 0.3 M NaOH, control incubations were performed with equivalent amounts of NaOH. All in vitro experiments were performed using phosphate buffers containing 1 μM DPTA.). The in vitro assays were repeated using various phosphate buffers while varying the pH's. Since carbon dioxide is known to enhance the rate of ONOO^− decomposition (38), the change in absorbance at 302 nm was followed in potassium phosphate buffer (pH 8.0), which was degassed by argon. […] This change of absorbance in response to addition of CeO2 NPs in these studies also mimics the scavenging seen with glutathione, a known antioxidant that protects cells from free radicals and peroxides (39). […]
UV-visible spectroscopy was used to measure decomposition of ONOO^− in the presence and absence of CeO2 NPs. […] Each sample was analyzed for a total of 600 seconds with a cycle time of 0.5 seconds at a wavelength of 302 nm using buffer containing 100 mM sodium phosphate buffer (pH 9.5-8.0) and 1 μM diethylenetriaminepentaacetic acid (DPTA) with or without CeO2 NPs. […]

[3] = cited from earlier work
[4] = tested on: mitochondrial morphology in cortical neurons; experiment: Mitochondrial fragmentation in neurons expressing DsRed2-Mito; type: cell-based, rat; settings: Aβ 25-35 10 μM, 6 h; nanoceria 100 nM or NAC 50 μM, 3 h pretreatment
From the text: To test whether nanoceria would prevent the Aβ-induced mitochondrial fragmentation, the mitochondrial morphology by fluorescence microscopy in neurons expressing DsRed2-Mito, a red fluorescent protein targeted to the mitochondrial matrix was visualized.
Cultures were either transfected with DsRed2-Mito on day 5 using LipoFectamine2000® or immunostained for microtubule-associated protein 2 (MAP2) for visualization of processes. […] For Aβ (25-25) treated cultures, Aβ (25-35) or reverse (35-25) was left to oligomerize for 24 h at 25° C. before adding to cultures at 10 μM for 6 h. Cells were fixed in 3.7% formaldehyde and 5% sucrose in PBS for 20 min at 37° C. […] Cells with fragmented mitochondria and condensed chromatin by Hoechst 33342 staining were scored as dead neurons. To evaluate mitochondrial fragmentation and cell death of a large number of neurons, manual scoring was carried out of neurons grown on glass coverslips using conventional fluorescence microscopy.
Neurons were grown on poly-Lysine coated glass cover slips as described before and transfected with DsRed2-Mito after 5 days in vitro (DIV) using Lipofectamine2000®. […] Quantification of mitochondrial fragmentation and neuronal cell death was performed as described (30). Fluorescence microscopy and image acquisition of mitochondrial morphology was performed as previously described (98).

[5] = tested on: DRP1 phosphorylation at S616; experiment: Western blot of p-DRP1 S616 in neurons; type: cell-based, rat; settings: preaggregated Aβ 25-35 10 μM, 6 h; nanoceria 100 nM or NAC 50 μM, 3 h pretreatment
Method: To measure the levels of p-DRP1 S616, neurons were lysed in buffer containing 50 mM Tris-Cl, pH 7.0, 150 mM NaCl, 1 mM MgCl2, 1 mM NaF, 1 mM NaVO4, 1% NP40, 10% glycerol and complete Protease Inhibitor Cocktail Tablets (Roche Applied Science, US). Membranes were blocked with 5% nonfat milk in TBS (pH 8.0) with 0.05% Tween20 for 3 h at room temperature (RT) and were incubated with primary rabbit polyclonal antibodies for p-DRP1 S616 (Cell Signaling) (1:1000) overnight at 4° C. The membranes were then washed four times (5 min) with TBS (0.05% Tween) and incubated for 2 h at room temperature with anti-rabbit horseradish peroxidase-conjugated secondary antibodies (GE Healthcare)(1:15,000) in blocking solution. After 4 washes (5 min) of TBS (0.05% Tween), immunocomplexes were then detected using the Super-Signal West-Dura or Femto chemiluminescent substrates (Pierce, Thermoscientific, Rockford, Ill.). For re-probing the membranes were stripped with Restore Western Blot Stripping Buffer (Thermo-Scientific) according to the manufacturer and incubated with mouse monoclonal antibodies for DRP1 (BD Biosciences, clone 8/DLP1) (1:1000) antibody or with polyclonal rabbit antibodies for β-actin (Cell Signaling) (1:1000).

cortical neurons = experiment: Scoring for neuronal cell death under nitrosative stressors; type: cell-based, rat; settings: oligomerized Aβ 25-35 10 μM, 6 h; nanoceria 100 nM or NAC 50 μM, 3 h pretreatment
Method: To assess the neuronal protection capabilities of CeO2 NPs, pure cortical neuronal cultures transfected with DsRed2-Mito were pretreated with CeO2 NPs (100 nM) and subjected to various treatments known to increase RNS. […] Cell death was evaluated by condensed nuclei accompanied by shrunken soma and mitochondrial fragmentation (FIG. 4A center panel).
Cultures were either transfected with DsRed2-Mito on day 5 using LipoFectamine2000® or immunostained for microtubule-associated protein 2 (MAP2) for visualization of processes. Experiments were performed after 11-14 days in vitro (DIV) with 3-NP, glutamate or NMDA. SNOC treated cultures were performed after 8 DIV. Neurons were pretreated with CeO2 NPs for various time points, 3 h, 12 h, 24 h or 72 h. For cultures treated with 3-NP (diluted in EBSS and pH adjusted to 7.4 with NaOH), 3-NP was diluted in individual culture's conditioned medium before exchange and cultures left for 8 h. Brief exposure to NMDA was carried as follows. […] Cells with fragmented mitochondria and condensed chromatin by Hoechst 33342 staining were scored as dead neurons. To evaluate mitochondrial fragmentation and cell death of a large number of neurons, manual scoring was carried out of neurons grown on glass coverslips using conventional fluorescence microscopy. […]

With `O=c1[nH]c(=O)c2[nH]c(=O)[nH]c2[nH]1` [uric acid] the “oxidation of APF by ONOO^−” value [1] was “prevented the oxidation of APF” and the “rate of ONOO^− decomposition” value ([2]; potassium phosphate buffer pH 8.0, degassed by argon, absorbance 302 nm) was “increased”.

With `N[C@@H](CCC(=O)N[C@@H](CS)C(=O)NCC(=O)O)C(=O)O` [GSH, glutathione] the “oxidation of APF by ONOO^−” value [1] was “prevented the oxidation of APF”, the “rate of ONOO^− decomposition” value ([2]; 100 mM sodium phosphate buffer pH 8.6, ONOO^− 25 μM, CeO2 NPs 100 μM, SiO2 NPs 100 μM, GSH 0.5 mM) was “increased” and the “rate of ONOO^− decomposition” value ([2]; 100 mM sodium phosphate buffer pH 9.5, ONOO^− 25 μM, CeO2 NPs 100 μM, GSH 0.5 mM) was “increased”.

For nitro-tyrosine, the pKa [3] is given as 7.4.

For `CC(=O)N[C@@H](CS)C(=O)O` [NAC, N-acetyl-L-cysteine], the “Aβ25-35-induced mitochondrial fragmentation (fluorescence micrographs)” value [4] was “prevented”, the “Aβ 25-35-induced DRP1 S616 phosphorylation” value [5] was “abolished” and the “cell viability / cell death after Aβ (25-35)” value (cortical neurons) was “relieved; also recorded: reduced”.
